Assay results as given in patent US6746990B2, “2-phenyl-substituted heterocyclic 1,3-ketoenols as herbicides and pesticides” (Bayer Aktiengesellschaft, priority 1995, dated 2004).

Columns and labels:
Type in all cases: in vivo
[1] = test system: green rice leafhopper (Nephotettix cinticeps); assay: Nephotettix test; details: after 6 days; active compound concentration 0.1%; rice seedlings dipped
Description: (§1) Solvent: 7 parts by weight of dimethylformamide
(§2) Emulsifier: 1 part by weight of alkylaryl polyglycol ether
(§3) To produce a suitable preparation of active compound, 1 part by weight of active compound is mixed with the stated amount of solvent and the stated amount of emulsifier, and the concentrate is diluted with water to the desired concentration.
Rice seedlings (Oryza sativa) are treated by being dipped into the preparation of active compound of the desired concentration and are infested with the green rice leafhopper (Nephotettix cinticeps) while the leaves are still moist.
After the specified period of time, the destruction in % is determined. 100% means that all the leafhoppers have been killed; 0% means that none of the leafhoppers have been killed.

[2] = test system: Alopecurus; assay: Pre-emergence test, Alopecurus; details: application rate 250 g/ha, after three weeks
Description: (§4) Pre-emergence Test Solvent: 3 parts by weight of acetone Emulsifier: 1 part by weight of alkylaryl polyglycol ether To produce a suitable preparation of active compound, 1 part by weight of active compound is mixed with the stated amount of solvent, the stated amount of emulsifier is added and the concentrate is diluted with water to the desired concentration. Seeds of the test plants are sown in normal soil and, after 24 hours, watered with the preparation of the active compound. It is expedient to keep constant the amount of water per unit area. The concentration of the active compound in the preparation is of no importance, only the amount of active compound applied per unit area being decisive. After three weeks, the degree of damage to the plants is rated in % damage in comparison to the development of the untreated control. The figures denote: 0%=no action (like untreated control) 100%=total destruction

[3] = test system: Digitaria; assay: Pre-emergence test, Digitaria; details: application rate 250 g/ha, after three weeks
Description: as §4

[4] = test system: Echinochloa; assay: Pre-emergence test, Echinochloa; details: application rate 250 g/ha, after three weeks
Description: as §4

[5] = test system: Chenopodium; assay: Pre-emergence test, Chenopodium; details: application rate 250 g/ha, after three weeks
Description: as §4

[6] = test system: Veronica; assay: Pre-emergence test, Veronica; details: application rate 250 g/ha, after three weeks
Description: as §4

[7] = test system: soya beans; assay: Pre-emergence test, tolerance by soya beans; details: application rate 250 g/ha
Description: as §4

[8] = test system: greenhouse red spider mite (Tetranychus urticae); assay: Tetranychus test (OP-resistant); details: after 13 days; active compound concentration 0.1%; infested bean shoots dipped
Description: Tetranychus Test (OP-resistant)
as §1, §2, §3
Bean shoots (Phaseolus vulgaris) which are severely infested with the greenhouse red spider mite (Tetranychus urticae) are dipped into a preparation of the active compound of the desired concentration.
After the specified period of time, the destruction in % is determined. 100% means that all the spider mites have been killed; 0% means that none of the spider mites have been killed.

[9] = test system: Alopecurus myosuroides; assay: Pre-emergence test, Alopecurus myosuroides; details: application rate 4000 g/ha, after three weeks
Description: as §4

[10] = test system: Beta vulgaris; assay: Pre-emergence test, tolerance by Beta vulgaris; details: application rate 4000 g/ha
Description: as §4

[11] = test system: Abutilon; assay: Pre-emergence test, Abutilon; details: application rate 250 g/ha, after three weeks
Description: as §4

[12] = test system: maize; assay: Pre-emergence test, tolerance by maize; details: application rate 250 g/ha
Description: as §4

[13] = test system: Alopecurus; assay: Post-emergence test, Alopecurus; details: application rate 125 g/ha, after three weeks
Description: (§5) Post-emergence Test Solvent: 5 parts by weight of acetone Emulsifier: 1 part by weight of alkylaryl polyglycol ether To produce a suitable preparation of active compound, 1 part by weight of active compound is mixed with the stated amount of solvent, the stated amount of emulsifier is added and the concentrate is diluted with water to the desired concentration. Test plants which have a height of 5-15 cm are sprayed with the preparation of the active compound in such a way as to apply the particular amounts of active compound desired per unit area. The concentration of the spray liquor is so chosen that the particular amounts of active compound desired are applied in 2000 l of water/ha. After three weeks, the degree of damage to the plants is. rated in % damage in comparison to the development of the untreated control. The figures denote: 0%=no action (like untreated control) 100%=total destruction

[14] = test system: Avena fatua; assay: Post-emergence test, Avena fatua; details: application rate 125 g/ha, after three weeks
Description: as §5

[15] = test system: Setaria; assay: Post-emergence test, Setaria; details: application rate 125 g/ha, after three weeks
Description: as §5

[16] = test system: soya beans; assay: Post-emergence test, tolerance by soya beans; details: application rate 125 g/ha
Description: as §5

[17] = test system: Boophilis Microplus Resistant/SP-resistant Parkhurst Strain; assay: Test with Boophilis Microplus resistant/SP-resistant Parkhurst strain; details: 20 μg/animal injected into the abdomen; adult females
Description: Test with Boophilis Microplus Resistant/SP-resistant Parkhurst Strain
Test animals: adult females which have sucked themselves full
Solvent: dimethyl sulphoxide
20 mg of active substance are dissolved in 1 ml of dimethyl sulphoxide, and lesser concentrations are prepared by dilution with the same solvent.
The test is carried out in 5 replications. 1 μl of the solutions is injected into the abdomen, and the animals are transferred into dishes and kept in a controlled-environment cabinet. The activity is determined via the inhibition of oviposition. 100% means that no tick has deposited eggs.

In the case of Cc1cc(C)c(C2=C(O)C3(CCC(C)CC3)NC2=O)c(C#N)c1 (single isomer, unassigned) [Example I-1-a-4], the destruction in % [1] is reported as 100%, the “damage to Alopecurus” value [2] is reported as 100% and the “damage to Digitaria” value [3] is reported as 100%. The “damage to Echinochloa” value [4] was 100%, the “damage to Chenopodium” value [5] was 100% and the “damage to Veronica” value [6] was 100%. For the same compound, the “tolerance by soya beans” value [7] was “good tolerance” and the “activity (destruction in %)” value [8] was 100%.
In the case of CCOC(=O)OC1=C(c2ccc(S(C)(=O)=O)cc2Cl)C(=O)NC12CCC(C)CC2 (stereo not drawn) [Example I-1-c-1], the “damage to Alopecurus myosuroides” value [9] is reported as 80% and the “tolerance by Beta vulgaris” value [10] is reported as “good tolerance”.
Cc1cc(C#N)cc(C)c1C1=C(O)C2(CCC(C)CC2)NC1=O (single isomer, unassigned) [Example I-1-a-6] was tested, and the destruction in % [1] was 100%, the “damage to Abutilon” value [11] was 80% and the tolerance by maize [12] was “good tolerance”. The “activity (destruction in %)” value [8] was 100%.
CCc1cc(C#N)cc(C)c1C1=C(O)C2(CCC(C)CC2)NC1=O (single isomer, unassigned) [Example I-1-a-5] was tested, and the destruction in % [1] was 100%, the “activity (destruction in %)” value [8] was 100% and the “damage to Alopecurus” value [13] was “at least 80%”. For the same compound, the “damage to Avena fatua” value [14] was “at least 80%”, the “damage to Setaria” value [15] was “at least 80%” and the “tolerance by soya beans” value [16] was “good tolerance”.
In the case of CC1CCC2(CC1)NC(=O)C(c1ccc(S(C)(=O)=O)cc1Cl)=C2O (stereo not drawn) [Example I-1-a-1], the destruction in % [1] is reported as 100%, the “damage to Alopecurus myosuroides” value [9] is reported as 80% and the “tolerance by Beta vulgaris” value [10] is reported as “good tolerance”. For the same compound, the “activity (inhibition of oviposition)” value [17] was 100%.
